Results taken from PubChem BioAssay (NCI).
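Where inhibition never reached the appropriate level, the endpoint shown equals the highest concentration tested. Otherwise, values were interpolated linearly from a five-concentration, 48-hour dose response in 96-well plates. At the GI50, growth is halved. At the TGI there is no net growth.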

Assays:
Assay in all cases: NCI-60 cell line screen, 48 h
NCI-H460 lung = system: NCI-H460 lung
SF-268 CNS = system: SF-268 CNS
MCF7 breast = system: MCF7 breast
NCI-H226 lung = system: NCI-H226 lung
HOP-62 NSCLC = system: HOP-62 NSCLC
A498 renal = system: A498 renal
SF-539 CNS = system: SF-539 CNS
ACHN renal = system: ACHN renal
HCT-116 colon = system: HCT-116 colon
SK-MEL-5 melanoma = system: SK-MEL-5 melanoma
RPMI-8226 leukemia = system: RPMI-8226 leukemia
UACC-62 melanoma = system: UACC-62 melanoma
SK-MEL-28 melanoma = system: SK-MEL-28 melanoma
U251 CNS = system: U251 CNS
MALME-3M melanoma = system: MALME-3M melanoma
SF-295 CNS = system: SF-295 CNS
RXF 393 renal = system: RXF 393 renal
OVCAR-3 ovarian = system: OVCAR-3 ovarian
OVCAR-5 ovarian = system: OVCAR-5 ovarian
EKVX NSCLC = system: EKVX NSCLC
MOLT-4 leukemia = system: MOLT-4 leukemia
UACC-257 melanoma = system: UACC-257 melanoma
MDA-MB-468 breast = system: MDA-MB-468 breast
PC-3 prostate = system: PC-3 prostate
SNB-19 CNS = system: SNB-19 CNS
NCI/ADR-RES ovarian = system: NCI/ADR-RES ovarian
T-47D breast = system: T-47D breast
HCT-15 colon = system: HCT-15 colon
SN12C renal = system: SN12C renal
BT-549 breast = system: BT-549 breast
CAKI-1 renal = system: CAKI-1 renal
DU-145 prostate = system: DU-145 prostate
SR leukemia = system: SR leukemia
HT29 colon = system: HT29 colon
UO-31 renal = system: UO-31 renal
786-0 renal = system: 786-0 renal
HCC-2998 colon = system: HCC-2998 colon
K-562 leukemia = system: K-562 leukemia
LOX IMVI melanoma = system: LOX IMVI melanoma
HL-60(TB) leukemia = system: HL-60(TB) leukemia
TK-10 renal = system: TK-10 renal
OVCAR-4 ovarian = system: OVCAR-4 ovarian
MDA-MB-231 breast = system: MDA-MB-231 breast
CCRF-CEM leukemia = system: CCRF-CEM leukemia
SNB-75 CNS = system: SNB-75 CNS
A549 NSCLC = system: A549 NSCLC
OVCAR-8 ovarian = system: OVCAR-8 ovarian
NCI-H522 lung = system: NCI-H522 lung
SK-MEL-2 melanoma = system: SK-MEL-2 melanoma
MDA-MB-435 = system: MDA-MB-435
SK-OV-3 ovarian = system: SK-OV-3 ovarian
HOP-92 NSCLC = system: HOP-92 NSCLC
HS 578T breast = system: HS 578T breast
KM12 colon = system: KM12 colon
NCI-H23 lung = system: NCI-H23 lung
COLO 205 colon = system: COLO 205 colon
IGROV1 ovarian = system: IGROV1 ovarian
M14 melanoma = system: M14 melanoma
SW-620 colon = system: SW-620 colon

For COc1ccc(C(=O)/C=C/c2ccc(OC)c(OCc3ccccc3)c2)cc1OC, the GI50 (NCI-H460 lung) was 3.67 µM, the TGI (NCI-H460 lung) was 20.3 µM and the GI50 (SF-268 CNS) was 8.91 µM. For the same compound, the TGI (SF-268 CNS) was 70.9 µM, the GI50 (MCF7 breast) was 2.64 µM and the TGI (MCF7 breast) was > 100 µM. For the same compound, the GI50 (NCI-H226 lung) was 6.35 µM, the TGI (NCI-H226 lung) was 95.9 µM and the GI50 (HOP-62 NSCLC) was 3.37 µM. For the same compound, the TGI (HOP-62 NSCLC) was 82.6 µM, the GI50 (A498 renal) was 17.5 µM and the TGI (A498 renal) was 61.4 µM. The GI50 (SF-539 CNS) was 2.04 µM, the TGI (SF-539 CNS) was 4.65 µM and the GI50 (ACHN renal) was 6.86 µM. The TGI (ACHN renal) was > 100 µM, the GI50 (HCT-116 colon) was 3.35 µM and the TGI (HCT-116 colon) was > 100 µM. The GI50 (SK-MEL-5 melanoma) was 11.7 µM, the TGI (SK-MEL-5 melanoma) was 27.5 µM and the GI50 (RPMI-8226 leukemia) was 2.64 µM. For the same compound, the TGI (RPMI-8226 leukemia) was > 100 µM, the GI50 (UACC-62 melanoma) was 3.81 µM and the TGI (UACC-62 melanoma) was 33.9 µM. The GI50 (SK-MEL-28 melanoma) was 21.4 µM, the TGI (SK-MEL-28 melanoma) was > 100 µM and the GI50 (U251 CNS) was 3.02 µM. The TGI (U251 CNS) was > 100 µM, the GI50 (MALME-3M melanoma) was 25.1 µM and the TGI (MALME-3M melanoma) was > 100 µM. The GI50 (SF-295 CNS) was 5.43 µM, the TGI (SF-295 CNS) was > 100 µM and the GI50 (RXF 393 renal) was 4.61 µM. For the same compound, the TGI (RXF 393 renal) was > 100 µM, the GI50 (OVCAR-3 ovarian) was 2.96 µM and the TGI (OVCAR-3 ovarian) was 19.6 µM. For the same compound, the GI50 (OVCAR-5 ovarian) was 2.97 µM, the TGI (OVCAR-5 ovarian) was > 100 µM and the GI50 (EKVX NSCLC) was 13.4 µM. The TGI (EKVX NSCLC) was > 100 µM, the GI50 (MOLT-4 leukemia) was 2.7 µM and the TGI (MOLT-4 leukemia) was 8.73 µM. The GI50 (UACC-257 melanoma) was 6.57 µM, the TGI (UACC-257 melanoma) was > 100 µM and the GI50 (MDA-MB-468 breast) was 2.94 µM. For the same compound, the TGI (MDA-MB-468 breast) was 19.6 µM, the GI50 (PC-3 prostate) was 4.99 µM and the TGI (PC-3 prostate) was > 100 µM. For the same compound, the GI50 (SNB-19 CNS) was 3.46 µM, the TGI (SNB-19 CNS) was > 100 µM and the GI50 (NCI/ADR-RES ovarian) was 3 µM. The TGI (NCI/ADR-RES ovarian) was > 100 µM, the GI50 (T-47D breast) was 2.8 µM and the TGI (T-47D breast) was 80.6 µM. For the same compound, the GI50 (HCT-15 colon) was 2.69 µM, the TGI (HCT-15 colon) was > 100 µM and the GI50 (SN12C renal) was 2.89 µM. For the same compound, the TGI (SN12C renal) was > 100 µM, the GI50 (BT-549 breast) was 2.55 µM and the TGI (BT-549 breast) was 8.42 µM. For the same compound, the GI50 (CAKI-1 renal) was 9.93 µM, the TGI (CAKI-1 renal) was > 100 µM and the GI50 (DU-145 prostate) was 3.83 µM. The TGI (DU-145 prostate) was > 100 µM, the GI50 (SR leukemia) was 2.06 µM and the TGI (SR leukemia) was 8.61 µM. For the same compound, the GI50 (HT29 colon) was 4 µM, the TGI (HT29 colon) was > 100 µM and the GI50 (UO-31 renal) was 2.89 µM. For the same compound, the TGI (UO-31 renal) was > 100 µM, the GI50 (786-0 renal) was 4.13 µM and the TGI (786-0 renal) was > 100 µM. The GI50 (HCC-2998 colon) was 3.39 µM, the TGI (HCC-2998 colon) was > 100 µM and the GI50 (K-562 leukemia) was 2.86 µM. The TGI (K-562 leukemia) was > 100 µM, the GI50 (LOX IMVI melanoma) was 2.66 µM and the TGI (LOX IMVI melanoma) was > 100 µM. The GI50 (HL-60(TB) leukemia) was 5.06 µM, the TGI (HL-60(TB) leukemia) was 24.8 µM and the GI50 (TK-10 renal) was 4.87 µM. For the same compound, the TGI (TK-10 renal) was > 100 µM, the GI50 (OVCAR-4 ovarian) was 5.2 µM and the TGI (OVCAR-4 ovarian) was 61.5 µM. For the same compound, the GI50 (MDA-MB-231 breast) was 4.11 µM, the TGI (MDA-MB-231 breast) was > 100 µM and the GI50 (CCRF-CEM leukemia) was 3.22 µM. For the same compound, the TGI (CCRF-CEM leukemia) was > 100 µM, the GI50 (SNB-75 CNS) was 1.59 µM and the TGI (SNB-75 CNS) was 7.21 µM. The GI50 (A549 NSCLC) was 3.11 µM, the TGI (A549 NSCLC) was > 100 µM and the GI50 (OVCAR-8 ovarian) was 3.25 µM. The TGI (OVCAR-8 ovarian) was > 100 µM, the GI50 (NCI-H522 lung) was 3.18 µM and the TGI (NCI-H522 lung) was 26 µM. The GI50 (SK-MEL-2 melanoma) was 14.4 µM, the TGI (SK-MEL-2 melanoma) was 60.1 µM and the GI50 (MDA-MB-435) was 3.47 µM. The TGI (MDA-MB-435) was > 100 µM, the GI50 (SK-OV-3 ovarian) was 8.23 µM and the TGI (SK-OV-3 ovarian) was > 100 µM. For the same compound, the GI50 (HOP-92 NSCLC) was 4.67 µM, the TGI (HOP-92 NSCLC) was > 100 µM and the GI50 (HS 578T breast) was 7.71 µM. The TGI (HS 578T breast) was 53.5 µM, the GI50 (KM12 colon) was 3.93 µM and the TGI (KM12 colon) was 38.6 µM. For the same compound, the GI50 (NCI-H23 lung) was 4.39 µM, the TGI (NCI-H23 lung) was 43.6 µM and the GI50 (COLO 205 colon) was 4.33 µM. For the same compound, the TGI (COLO 205 colon) was 38 µM, the GI50 (IGROV1 ovarian) was 3.42 µM and the TGI (IGROV1 ovarian) was > 100 µM. The GI50 (M14 melanoma) was 9.79 µM, the TGI (M14 melanoma) was > 100 µM and the GI50 (SW-620 colon) was 3.04 µM. The TGI (SW-620 colon) was > 100 µM.
